In DBAASP one finds MIC data, which are given here for 13 compounds.

Converted amounts (≈) assume the structure as drawn. Some results are limits rather than exact numbers.

What all share (test): ≥ marks a high value that may be exact or a test limit, other limits are often not marked, values filed in µg/mL are converted to µM
Assay [1] concerns Escherichia coli.
Assay [2] has as its system Staphylococcus aureus.
In assay [3] the test system is Bacillus cereus.
Assay [4] has as its system Klebsiella pneumoniae ATCC 700603.
The test system of assay [5] is Staphylococcus aureus ATCC 25923.
In assay [6] the test system is Bacillus subtilis ATCC 6633.
In assay [7] the test system is Escherichia coli ATCC 25922.
The subject of assay [8] is Pseudomonas aeruginosa ATCC 27853.
Assay [9] has as its system Staphylococcus epidermidis ATCC 12228.
Assay [10] deals with Candida albicans ATCC 90028.
Assay [11] relates to Staphylococcus aureus ATCC 29213.
Assay [12] concerns Salmonella typhimurium KCTC 1926.
For assay [13], the system named is Acinetobacter baumannii.
The test system of assay [14] is Pseudomonas aeruginosa ATCC 9027.
The subject of assay [15] is Enterococcus faecalis ATCC 29212.
The subject of assay [16] is Candida albicans ATCC 10231.

A word on the MIC: it is the lowest concentration that inhibits growth of the organism. A higher MIC goes with a less susceptible organism. For the compound `CC(C)C[C@H](NC(=O)[C@H](CCCCN)NC(=O)[C@H](Cc1ccccc1)NC(=O)[C@@H](NC(=O)[C@@H](NC(=O)CNC(=O)[C@H](CC(C)C)NC(=O)[C@@H](N)Cc1ccccc1)C(C)C)C(C)C)C(=O)N[C@@H](C)C(=O)N[C@@H](CO)C(=O)N[C@@H](CCCCN)C(=O)N[C@H](C(=O)N[C@@H](Cc1ccccc1)C(=O)NCC(=O)N[C@@H](CCCCN)C(=O)N[C@H](C(=O)N[C@@H](Cc1ccccc1)C(=O)NCC(=O)N[C@@H](CCCCN)C(=O)N[C@H](C(=O)O)C(C)C)C(C)C)C(C)C` [FLGVVFKLASKVFGKVFGKV], the minimal inhibitory concentration (MIC) turned out to be 29.5 µM (≈ 64 µg/mL) in assay [1], 3.69 µM (≈ 8 µg/mL) in [2] and 3.69 µM (≈ 8 µg/mL) in assay [3].
As to `CC(C)C[C@H](NC(=O)[C@@H](N)Cc1ccccc1)C(=O)NCC(=O)N[C@H](C(=O)N[C@H](C(=O)N[C@@H](Cc1ccccc1)C(=O)N[C@@H](CCCCN)C(=O)N[C@@H](CO)C(=O)N[C@@H](C)C(=O)N[C@@H](CO)C(=O)N[C@@H](CCCCN)C(=O)N[C@H](C(=O)N[C@@H](Cc1ccccc1)C(=O)N1CCC[C@H]1C(=O)N[C@@H](C)C(=O)N[C@H](C(=O)N[C@@H](Cc1ccccc1)C(=O)NCC(=O)N[C@@H](CCCCN)C(=O)N[C@H](C(=O)O)C(C)C)C(C)C)C(C)C)C(C)C)C(C)C` [FLGVVFKSASKVFPAVFGKV], the minimal inhibitory concentration (MIC) in [1] was over 120 µM; in [2], over 120 µM; in [3], at least 120 µM.
As to `CC(=O)N[C@@H](CCCCN)C(=O)N[C@@H](Cc1ccccc1)C(=O)N[C@@H](CC(C)C)C(=O)N[C@@H](CCCCN)C(=O)N[C@@H](CC(C)C)C(=O)N[C@@H](CCCCN)C(=O)N[C@@H](Cc1c[nH]c2ccccc12)C(=O)N[C@@H](CC(C)C)C(=O)N[C@@H](CCCCN)C(=O)N[C@@H](CO)C(=O)N[C@@H](Cc1c[nH]c2ccccc12)C(=O)N[C@@H](CCCCN)C(=O)N[C@@H](CC(N)=O)C(=O)N[C@@H](Cc1ccccc1)C(=O)N[C@@H](CCCCN)C(N)=O` [KFLKLKWLKSWKNFK], the minimum inhibitory concentration (MIC) in assay [4] worked out at 25 µM (≈ 50.9 µg/mL); in assay [5] it was 50 µM (≈ 102 µg/mL); in assay [6], 6.4 µM (≈ 13 µg/mL); in assay [7], 12.5 µM (≈ 25.4 µg/mL); in assay [8], 12.5 µM (≈ 25.4 µg/mL); in assay [9] it was 12.5 µM (≈ 25.4 µg/mL).
Take `CC[C@H](C)[C@H](NC(=O)[C@H](CCCN=C(N)N)NC(=O)[C@H](CCC(N)=O)NC(=O)[C@@H](NC(=O)[C@@H](NC(=O)[C@H](CCCCN)NC(=O)[C@@H](N)CCCCN)[C@@H](C)CC)C(C)C)C(=O)N[C@@H](CCCCN)C(=O)N[C@@H](CC(=O)O)C(=O)N[C@@H](Cc1ccccc1)C(=O)N[C@@H](CC(C)C)C(=O)N[C@@H](CCCN=C(N)N)C(=O)O` [KKIVQRIKDFLR]: the minimum inhibitory concentration (MIC) in [7] was determined as 5 µM (≈ 7.72 µg/mL); in [8], 10 µM (≈ 15.4 µg/mL); in assay [10], 10 µM (≈ 15.4 µg/mL); in assay [11] it was 5 µM (≈ 7.72 µg/mL).
Consider `CC[C@H](C)[C@H](NC(=O)[C@H](CCCN=C(N)N)NC(=O)[C@H](C)NC(=O)[C@@H](NC(=O)[C@@H](NC(=O)[C@H](CCCN=C(N)N)NC(=O)[C@@H](N)CCCCN)[C@@H](C)CC)C(C)C)C(=O)N[C@@H](CCCCN)C(=O)N[C@@H](C)C(=O)N[C@@H](Cc1ccccc1)C(=O)N[C@@H](CC(C)C)C(=O)N[C@@H](CCCN=C(N)N)C(=O)O` [KRIVARIKAFLR], for which the minimal inhibitory concentration (MIC) stood at 1.25 µM (≈ 1.84 µg/mL) in [7], 1.25 µM (≈ 1.84 µg/mL) in assay [8], 2.5 µM (≈ 3.68 µg/mL) in assay [10] and 2.5 µM (≈ 3.68 µg/mL) in [11].
In the case of `CC[C@H](C)[C@H](NC(=O)[C@H](CCCCN)NC(=O)[C@H](CCC(N)=O)NC(=O)[C@@H](NC(=O)[C@@H](NC(=O)[C@H](CCCN=C(N)N)NC(=O)[C@@H](N)CCCCN)[C@@H](C)CC)C(C)C)C(=O)N[C@@H](CCCCN)C(=O)N[C@@H](CC(=O)O)C(=O)N[C@@H](Cc1ccccc1)C(=O)N[C@@H](CC(C)C)C(=O)N[C@@H](CCCN=C(N)N)C(=O)O` [KRIVQKIKDFLR], the MIC in [7] was 5 µM (≈ 7.72 µg/mL); in assay [8], 10 µM (≈ 15.4 µg/mL); in assay [10], 20 µM (≈ 30.9 µg/mL); in [11], 10 µM (≈ 15.4 µg/mL).
In the case of `CC[C@H](C)[C@H](NC(=O)[C@H](CCCN=C(N)N)NC(=O)[C@H](CCC(N)=O)NC(=O)[C@@H](NC(=O)[C@@H](NC(=O)[C@H](CCCN=C(N)N)NC(=O)[C@@H](N)CCCCN)[C@@H](C)CC)C(C)C)C(=O)N[C@@H](CCCCN)C(=O)N[C@@H](CC(=O)O)C(=O)N[C@@H](Cc1ccccc1)C(=O)N[C@@H](CC(C)C)C(=O)N[C@@H](C)C(=O)O` [KRIVQRIKDFLA], the minimum inhibitory concentration (MIC) was 40 µM (≈ 59.5 µg/mL) in assay [7], 40 µM (≈ 59.5 µg/mL) in assay [8], at least 40 µM in assay [10] and 40 µM (≈ 59.5 µg/mL) in assay [11].
The compound `CC[C@H](C)[C@H](NC(=O)[C@@H](NC(=O)[C@@H](NC(=O)[C@H](CCCN=C(N)N)NC(=O)[C@@H](NC(=O)[C@@H](NC(=O)[C@H](CC(C)C)NC(=O)[C@@H]1CCCN1C(=O)[C@H](Cc1c[nH]c2ccccc12)NC(=O)[C@@H](NC(=O)[C@H](CCCN=C(N)N)NC(=O)[C@@H](N)CCCCN)C(C)C)C(C)C)[C@@H](C)CC)[C@@H](C)O)C(C)C)C(=O)N[C@@H](C)C(=O)NCC(=O)N[C@@H](Cc1ccc(O)cc1)C(=O)N[C@@H](CC(N)=O)C(=O)N[C@@H](CC(C)C)C(=O)N[C@@H](Cc1ccc(O)cc1)C(=O)N[C@@H](CCCN=C(N)N)C(=O)O` [KRVWPLVIRTVIAGYNLYR] returned a minimal inhibitory concentration (MIC) in assay [12] of at least 32 µM.
Consider `CC[C@H](C)[C@H](NC(=O)[C@H](CC(C)C)NC(=O)[C@H](CCCCN)NC(=O)[C@H](CCCN=C(N)N)NC(=O)[C@H](CC(N)=O)NC(=O)[C@H](CC(C)C)NC(=O)[C@H](CCCCN)NC(=O)[C@H](Cc1c[nH]c2ccccc12)NC(=O)[C@@H](NC(=O)[C@@H](NC(=O)[C@H](CO)NC(=O)[C@H](Cc1ccccc1)NC(=O)[C@@H](N)CC(C)C)[C@@H](C)CC)[C@@H](C)CC)C(=O)N[C@@H](CCCCN)C(=O)N[C@@H](C)C(=O)O` [LFSIIWKLNRKLIKA], for which the MIC in assay [4] is over 64 µM; in [13], at least 64 µM; in assay [5], over 64 µM; in [7], 64 µM (≈ 118 µg/mL); in assay [14], over 64 µM.
For `CC(C)C[C@H](NC(=O)[C@H](CCCN=C(N)N)NC(=O)[C@H](C)NC(=O)[C@@H](NC(=O)[C@H](CCCN=C(N)N)NC(=O)[C@H](CCCN=C(N)N)NC(=O)[C@H](CC(C)C)NC(=O)[C@@H](N)CC(C)C)C(C)C)C(=O)N[C@@H](CC(C)C)C(=O)N[C@@H](CCCCN)C(=O)N[C@@H](CCCN=C(N)N)C(=O)N[C@@H](Cc1ccccc1)C(=O)N[C@@H](C)C(=O)N[C@@H](CCCCN)C(=O)O` [LLRRVARLLKRFAK], the MIC in assay [5] was 4.6 µM (≈ 8 µg/mL); in assay [6], 4.6 µM (≈ 8 µg/mL); in assay [7] it was 1.15 µM (≈ 2 µg/mL); in assay [8], 1.15 µM (≈ 2 µg/mL).
`CC(C)C[C@H](NC(=O)[C@H](CC(C)C)NC(=O)[C@H](CCCN=C(N)N)NC(=O)[C@H](CCCCN)NC(=O)[C@H](CCCN=C(N)N)NC(=O)[C@H](CC(C)C)NC(=O)[C@H](CCCCN)NC(=O)[C@H](CCCN=C(N)N)NC(=O)[C@H](CC(C)C)NC(=O)[C@H](Cc1cnc[nH]1)NC(=O)[C@H](CO)NC(=O)[C@H](C)NC(=O)[C@H](CC(C)C)NC(=O)[C@H](CCCN=C(N)N)NC(=O)[C@@H](NC(=O)[C@H](CC(C)C)NC(=O)[C@H](CCCN=C(N)N)NC(=O)[C@H](CCCCN)NC(=O)[C@H](CCCN=C(N)N)NC(=O)[C@H](CC(C)C)NC(=O)[C@H](CCCCN)NC(=O)[C@H](CCCN=C(N)N)NC(=O)[C@@H](N)CC(C)C)C(C)C)C(=O)O` [LRKLRKRLVRLASHLRKLRKRLL]: the minimum inhibitory concentration (MIC) in assay [13] is 2.05 µM (≈ 6 µg/mL); in assay [7] it was 2.05 µM (≈ 6 µg/mL); in assay [15] it was over 10.9 µM; in [8], 2.74 µM (≈ 8 µg/mL); in [11] it was 5.47 µM (≈ 16 µg/mL).
Regarding `C[C@H](NC(=O)[C@H](Cc1c[nH]c2ccccc12)NC(=O)[C@H](CCCCN)NC(=O)[C@H](Cc1ccccc1)NC(=O)[C@H](CCCN=C(N)N)NC(=O)[C@H](Cc1c[nH]c2ccccc12)NC(=O)[C@@H](N)CCCN=C(N)N)C(=O)N[C@@H](CCCCN)C(=O)N[C@@H](CCCCN)C(=O)O` [RWRFKWAKK], the minimum inhibitory concentration (MIC) in assay [5] is over 76.6 µM; in assay [6], at least 76.6 µM; in assay [7] it was over 76.6 µM; in assay [16], over 76.6 µM.
On to `CC(C)C[C@H](NC(=O)[C@H](CCCCN)NC(=O)[C@@H]1CCCN1C(=O)[C@H](CC(C)C)NC(=O)[C@H](CC(C)C)NC(=O)[C@@H]1CCCN1C(=O)[C@H](CCCCN)NC(=O)[C@H](CC(C)C)NC(=O)[C@H](CCCCN)NC(=O)[C@@H]1CCCN1C(=O)[C@H](CC(C)C)NC(=O)[C@H](CC(C)C)NC(=O)[C@H](CC(C)C)NC(=O)[C@H](CCCCN)NC(=O)[C@H](CC(C)C)NC(=O)[C@H](CC(C)C)NC(=O)[C@H](CCCCN)NC(=O)[C@@H](N)Cc1ccc(O)cc1)C(N)=O` [YKLLKLLLPKLKPLLPKL], for which the MIC in assay [8] is 19.9 µM (≈ 42.4 µg/mL); in [16], over 79.7 µM; in [11] it was 23.3 µM (≈ 49.7 µg/mL).
